# Test results as given in ChEMBL document CHEMBL3885861, “Open TG-GATES”.
# Organism: Rattus norvegicus
# Test: Open TG-GATES - Regimen: Single
# Type: toxicity, organism-based, Sprague-Dawley
# Set-up: regimen Single, gender Male, age 6 weeks
# Conditions: in vivo, po, route gavage; for gamma-GTP / ALP / ALT / AST / BUN / CRE / Ca / Cl / DBIL / GLC / IP / K / LDH / Na / PL / RALB / TBIL / TC / TG / TP: tissue Plasma; for APTT / Bas / Eos / Fbg / Ht / Lym / MCH / MCHC / MCV / Mono / Neu / PT / Plat / RBC / Ret / WBC: tissue Blood; for KIDNEY_L / KIDNEY_R / KIDNEY_TOTAL: tissue Kidney; for LIVER: tissue Liver
compound,measurement,setting,value
Cc1cccc(Nc2cc(Cl)nc(SCC(=O)O)n2)c1C [PIRINIXIC ACID],gamma-GTP,"0 mg/kg, 24 h, dose level Control",1.2 IU/L
same,TERMINAL_BW,"10 mg/kg, 3 h, dose level Low",205.8 g
same,APTT,"10 mg/kg, 3 h, dose level Low",14 s
same,Bas,"10 mg/kg, 3 h, dose level Low",0%
same,Eos,"10 mg/kg, 3 h, dose level Low",0.6%
same,Fbg,"10 mg/kg, 3 h, dose level Low",312.8 mg/dL
same,Ht,"10 mg/kg, 3 h, dose level Low",39.2%
same,Lym,"10 mg/kg, 3 h, dose level Low",70.2%
same,MCH,"10 mg/kg, 3 h, dose level Low",21.2 pg
same,MCHC,"10 mg/kg, 3 h, dose level Low",34.1%
same,MCV,"10 mg/kg, 3 h, dose level Low",62.1 fL
same,Mono,"10 mg/kg, 3 h, dose level Low",2.6%
same,Neu,"10 mg/kg, 3 h, dose level Low",26%
same,PT,"10 mg/kg, 3 h, dose level Low",12.2 s
same,Plat,"10 mg/kg, 3 h, dose level Low",125.7 x10_4/uL
same,RBC,"10 mg/kg, 3 h, dose level Low",631.2 x10_4/ul
same,Ret,"10 mg/kg, 3 h, dose level Low",8.2%
same,WBC,"10 mg/kg, 3 h, dose level Low",82.9 x10_2/uL
same,KIDNEY_L,"10 mg/kg, 3 h, dose level Low",0.8 g
same,KIDNEY_R,"10 mg/kg, 3 h, dose level Low",0.9 g
same,KIDNEY_TOTAL,"10 mg/kg, 3 h, dose level Low",1.7 g
same,LIVER,"10 mg/kg, 3 h, dose level Low",8.8 g
same,ALP,"10 mg/kg, 3 h, dose level Low",1833.4 IU/L
same,ALT,"10 mg/kg, 3 h, dose level Low",49 IU/L
same,AST,"10 mg/kg, 3 h, dose level Low",74 IU/L
same,BUN,"10 mg/kg, 3 h, dose level Low",11 mg/dL
same,CRE,"10 mg/kg, 3 h, dose level Low",0.2 mg/dL
same,Ca,"10 mg/kg, 3 h, dose level Low",11.2 mg/dL
same,Cl,"10 mg/kg, 3 h, dose level Low",103.8 meq/L
same,DBIL,"10 mg/kg, 3 h, dose level Low",0.058 mg/dL
same,GLC,"10 mg/kg, 3 h, dose level Low",191 mg/dL
same,IP,"10 mg/kg, 3 h, dose level Low",11.1 mg/dL
same,K,"10 mg/kg, 3 h, dose level Low",4.1 meq/L
same,LDH,"10 mg/kg, 3 h, dose level Low",66.4 IU/L
same,Na,"10 mg/kg, 3 h, dose level Low",139.8 meq/L
same,PL,"10 mg/kg, 3 h, dose level Low",173 mg/dL
same,RALB,"10 mg/kg, 3 h, dose level Low",2.6 g/dL
same,TBIL,"10 mg/kg, 3 h, dose level Low",0.044 mg/dL
same,TC,"10 mg/kg, 3 h, dose level Low",87.6 mg/dL
same,TG,"10 mg/kg, 3 h, dose level Low",161 mg/dL
same,TP,"10 mg/kg, 3 h, dose level Low",5.7 g/dL
same,gamma-GTP,"10 mg/kg, 3 h, dose level Low",1 IU/L
same,TERMINAL_BW,"10 mg/kg, 6 h, dose level Low",203.8 g
same,APTT,"10 mg/kg, 6 h, dose level Low",16 s
same,Bas,"10 mg/kg, 6 h, dose level Low",0%
same,Eos,"10 mg/kg, 6 h, dose level Low",0.6%
same,Fbg,"10 mg/kg, 6 h, dose level Low",266.8 mg/dL
same,Ht,"10 mg/kg, 6 h, dose level Low",39.9%
same,Lym,"10 mg/kg, 6 h, dose level Low",76.2%
same,MCH,"10 mg/kg, 6 h, dose level Low",22 pg
same,MCHC,"10 mg/kg, 6 h, dose level Low",34.3%
same,MCV,"10 mg/kg, 6 h, dose level Low",64.2 fL
same,Mono,"10 mg/kg, 6 h, dose level Low",2%
same,Neu,"10 mg/kg, 6 h, dose level Low",20.6%
same,PT,"10 mg/kg, 6 h, dose level Low",12.4 s
same,Plat,"10 mg/kg, 6 h, dose level Low",111.3 x10_4/uL
same,RBC,"10 mg/kg, 6 h, dose level Low",622.6 x10_4/ul
same,Ret,"10 mg/kg, 6 h, dose level Low",7.5%
same,WBC,"10 mg/kg, 6 h, dose level Low",80 x10_2/uL
same,KIDNEY_L,"10 mg/kg, 6 h, dose level Low",0.9 g
same,KIDNEY_R,"10 mg/kg, 6 h, dose level Low",0.8 g
same,KIDNEY_TOTAL,"10 mg/kg, 6 h, dose level Low",1.7 g
same,LIVER,"10 mg/kg, 6 h, dose level Low",7.9 g
same,ALP,"10 mg/kg, 6 h, dose level Low",1630.4 IU/L
same,ALT,"10 mg/kg, 6 h, dose level Low",43.6 IU/L
same,AST,"10 mg/kg, 6 h, dose level Low",79.2 IU/L
same,BUN,"10 mg/kg, 6 h, dose level Low",10 mg/dL
same,CRE,"10 mg/kg, 6 h, dose level Low",0.2 mg/dL
same,Ca,"10 mg/kg, 6 h, dose level Low",10.8 mg/dL
same,Cl,"10 mg/kg, 6 h, dose level Low",106.2 meq/L
same,DBIL,"10 mg/kg, 6 h, dose level Low",0.028 mg/dL
same,GLC,"10 mg/kg, 6 h, dose level Low",190.2 mg/dL
same,IP,"10 mg/kg, 6 h, dose level Low",10.7 mg/dL
same,K,"10 mg/kg, 6 h, dose level Low",4.1 meq/L
same,LDH,"10 mg/kg, 6 h, dose level Low",55.8 IU/L
same,Na,"10 mg/kg, 6 h, dose level Low",141.8 meq/L
same,RALB,"10 mg/kg, 6 h, dose level Low",2.6 g/dL
same,TBIL,"10 mg/kg, 6 h, dose level Low",0.038 mg/dL
same,TC,"10 mg/kg, 6 h, dose level Low",70.8 mg/dL
same,TG,"10 mg/kg, 6 h, dose level Low",76.8 mg/dL
same,TP,"10 mg/kg, 6 h, dose level Low",5.5 g/dL
same,gamma-GTP,"10 mg/kg, 6 h, dose level Low",1.2 IU/L
same,TERMINAL_BW,"10 mg/kg, 9 h, dose level Low",203.6 g
same,APTT,"10 mg/kg, 9 h, dose level Low",16.8 s
same,Bas,"10 mg/kg, 9 h, dose level Low",0%
same,Eos,"10 mg/kg, 9 h, dose level Low",0.6%
same,Fbg,"10 mg/kg, 9 h, dose level Low",248.4 mg/dL
same,Ht,"10 mg/kg, 9 h, dose level Low",38.9%
same,Lym,"10 mg/kg, 9 h, dose level Low",73.6%
same,MCH,"10 mg/kg, 9 h, dose level Low",21.7 pg
same,MCHC,"10 mg/kg, 9 h, dose level Low",34.5%
same,MCV,"10 mg/kg, 9 h, dose level Low",63 fL
same,Mono,"10 mg/kg, 9 h, dose level Low",2.2%
same,Neu,"10 mg/kg, 9 h, dose level Low",23%
same,PT,"10 mg/kg, 9 h, dose level Low",12.5 s
same,Plat,"10 mg/kg, 9 h, dose level Low",105.9 x10_4/uL
same,RBC,"10 mg/kg, 9 h, dose level Low",618 x10_4/ul
same,Ret,"10 mg/kg, 9 h, dose level Low",7.7%
same,WBC,"10 mg/kg, 9 h, dose level Low",67.5 x10_2/uL
same,KIDNEY_L,"10 mg/kg, 9 h, dose level Low",0.9 g
same,KIDNEY_R,"10 mg/kg, 9 h, dose level Low",0.9 g
same,KIDNEY_TOTAL,"10 mg/kg, 9 h, dose level Low",1.7 g
same,LIVER,"10 mg/kg, 9 h, dose level Low",7.8 g
same,ALP,"10 mg/kg, 9 h, dose level Low",1462.6 IU/L
same,ALT,"10 mg/kg, 9 h, dose level Low",35.4 IU/L
same,AST,"10 mg/kg, 9 h, dose level Low",69.2 IU/L
same,BUN,"10 mg/kg, 9 h, dose level Low",9.4 mg/dL
same,CRE,"10 mg/kg, 9 h, dose level Low",0.2 mg/dL
same,Ca,"10 mg/kg, 9 h, dose level Low",10.6 mg/dL
same,Cl,"10 mg/kg, 9 h, dose level Low",105 meq/L
same,DBIL,"10 mg/kg, 9 h, dose level Low",0.024 mg/dL
same,GLC,"10 mg/kg, 9 h, dose level Low",191.2 mg/dL
same,IP,"10 mg/kg, 9 h, dose level Low",10.6 mg/dL
same,K,"10 mg/kg, 9 h, dose level Low",3.7 meq/L
same,LDH,"10 mg/kg, 9 h, dose level Low",53.2 IU/L
same,Na,"10 mg/kg, 9 h, dose level Low",141.2 meq/L
same,PL,"10 mg/kg, 9 h, dose level Low",121.8 mg/dL
same,RALB,"10 mg/kg, 9 h, dose level Low",2.6 g/dL
same,TBIL,"10 mg/kg, 9 h, dose level Low",0.034 mg/dL
same,TC,"10 mg/kg, 9 h, dose level Low",63.8 mg/dL
same,TG,"10 mg/kg, 9 h, dose level Low",76.6 mg/dL
same,TP,"10 mg/kg, 9 h, dose level Low",5.3 g/dL
same,gamma-GTP,"10 mg/kg, 9 h, dose level Low",1.4 IU/L
same,TERMINAL_BW,"10 mg/kg, 24 h, dose level Low",212.4 g
same,APTT,"10 mg/kg, 24 h, dose level Low",15.7 s
same,Bas,"10 mg/kg, 24 h, dose level Low",0.2%
same,Eos,"10 mg/kg, 24 h, dose level Low",0.8%
same,Fbg,"10 mg/kg, 24 h, dose level Low",217.8 mg/dL
same,Ht,"10 mg/kg, 24 h, dose level Low",38.2%
same,Lym,"10 mg/kg, 24 h, dose level Low",77%
same,MCH,"10 mg/kg, 24 h, dose level Low",21.4 pg
same,MCHC,"10 mg/kg, 24 h, dose level Low",34.2%
same,MCV,"10 mg/kg, 24 h, dose level Low",62.6 fL
same,Mono,"10 mg/kg, 24 h, dose level Low",2.2%
same,Neu,"10 mg/kg, 24 h, dose level Low",19.6%
same,PT,"10 mg/kg, 24 h, dose level Low",12.8 s
same,Plat,"10 mg/kg, 24 h, dose level Low",111.5 x10_4/uL
same,RBC,"10 mg/kg, 24 h, dose level Low",611 x10_4/ul
same,Ret,"10 mg/kg, 24 h, dose level Low",7.3%
same,WBC,"10 mg/kg, 24 h, dose level Low",90.6 x10_2/uL
same,KIDNEY_L,"10 mg/kg, 24 h, dose level Low",0.9 g
same,KIDNEY_R,"10 mg/kg, 24 h, dose level Low",0.9 g
same,KIDNEY_TOTAL,"10 mg/kg, 24 h, dose level Low",1.9 g
same,LIVER,"10 mg/kg, 24 h, dose level Low",10.8 g
same,ALP,"10 mg/kg, 24 h, dose level Low",1927 IU/L
same,ALT,"10 mg/kg, 24 h, dose level Low",47 IU/L
same,AST,"10 mg/kg, 24 h, dose level Low",71.4 IU/L
same,BUN,"10 mg/kg, 24 h, dose level Low",13.6 mg/dL
same,CRE,"10 mg/kg, 24 h, dose level Low",0.2 mg/dL
same,Ca,"10 mg/kg, 24 h, dose level Low",11 mg/dL
same,Cl,"10 mg/kg, 24 h, dose level Low",104.2 meq/L
same,DBIL,"10 mg/kg, 24 h, dose level Low",0.022 mg/dL
same,GLC,"10 mg/kg, 24 h, dose level Low",191.4 mg/dL
same,IP,"10 mg/kg, 24 h, dose level Low",8.7 mg/dL
same,K,"10 mg/kg, 24 h, dose level Low",4 meq/L
same,LDH,"10 mg/kg, 24 h, dose level Low",57 IU/L
same,Na,"10 mg/kg, 24 h, dose level Low",143.2 meq/L
same,PL,"10 mg/kg, 24 h, dose level Low",108.8 mg/dL
same,RALB,"10 mg/kg, 24 h, dose level Low",2.5 g/dL
same,TBIL,"10 mg/kg, 24 h, dose level Low",0.034 mg/dL
same,TC,"10 mg/kg, 24 h, dose level Low",54.8 mg/dL
same,TG,"10 mg/kg, 24 h, dose level Low",49.4 mg/dL
same,TP,"10 mg/kg, 24 h, dose level Low",5.1 g/dL
same,gamma-GTP,"10 mg/kg, 24 h, dose level Low",1 IU/L
